Measurements taken from ChEMBL document CHEMBL4610054, “Design, synthesis, and structure-activity relationship studies of novel triazole agents with strong antifungal activity against Aspergillus fumigatus” (2020).
≈ marks a conversion by molar mass, not a printed value.

Experiments:
Format in all cases: functional
Aspergillus fumigatus = test: Antifungal activity against Aspergillus fumigatus 7544 by NCCLS protocol based broth microdilution assay
Candida albicans [1] = test: Antifungal activity against Candida albicans SC5314 by NCCLS protocol based broth microdilution assay
Cryptococcus neoformans = test: Antifungal activity against Cryptococcus neoformans 32605 by NCCLS protocol based broth microdilution assay
Candida albicans [2] = test: Antifungal activity against Candida albicans Y0109 by NCCLS protocol based broth microdilution assay
Nannizzia gypsea = test: Antifungal activity against Microsporum gypseum CMCC by NCCLS protocol based broth microdilution assay
Candida parapsilosis = test: Antifungal activity against Candida parapsilosis 22019 by NCCLS protocol based broth microdilution assay; details: Lodderomyces parapsilosis
Nakaseomyces glabratus = test: Antifungal activity against Candida glabrata 537 by NCCLS protocol based broth microdilution assay
Candida albicans [3] = test: Antifungal activity against fluconazole-resistant Candida albicans isolate 100 by NCCLS protocol based broth microdilution method
Candida albicans [4] = test: Antifungal activity against fluconazole-resistant Candida albicans isolate 103 by NCCLS protocol based broth microdilution method

Compound	MIC (Aspergillus fumigatus)	MIC (Candida albicans [1])	MIC (Cryptococcus neoformans)	MIC (Candida albicans [2])	MIC (Nannizzia gypsea)	MIC (Candida parapsilosis)	MIC (Nakaseomyces glabratus)	MIC (Candida albicans [3])	MIC (Candida albicans [4])
C[C@@H](n1nnc2ccc(Br)cc2c1=O)[C@](O)(Cn1cncn1)c1ccc(F)cc1F	> 64 µg/mL	0.125 µg/mL (≈ 0.262 µM)	2 µg/mL (≈ 4.19 µM)						
C[C@@H](n1nnc2cc(C(F)(F)F)ccc2c1=O)[C@](O)(Cn1cncn1)c1ccc(F)cc1F	4 µg/mL (≈ 8.58 µM)	0.0156 µg/mL (≈ 0.0334 µM)	0.125 µg/mL (≈ 0.268 µM)	0.0156 µg/mL (≈ 0.0334 µM)	2 µg/mL (≈ 4.29 µM)	0.0313 µg/mL (≈ 0.0671 µM)	0.0313 µg/mL (≈ 0.0671 µM)		
C[C@@H](n1nnc2cc(F)ccc2c1=O)[C@](O)(Cn1cncn1)c1ccc(F)cc1F	1 µg/mL (≈ 2.4 µM)	0.0156 µg/mL (≈ 0.0375 µM)	0.25 µg/mL (≈ 0.6 µM)	0.0156 µg/mL (≈ 0.0375 µM)	2 µg/mL (≈ 4.8 µM)	0.0313 µg/mL (≈ 0.0752 µM)	0.0313 µg/mL (≈ 0.0752 µM)	32 µg/mL (≈ 76.9 µM)	64 µg/mL (≈ 154 µM)
Cc1ccc2c(=O)n([C@H](C)[C@](O)(Cn3cncn3)c3ccc(F)cc3F)nnc2c1	2 µg/mL (≈ 4.85 µM)	0.0156 µg/mL (≈ 0.0378 µM)	0.125 µg/mL (≈ 0.303 µM)	0.0156 µg/mL (≈ 0.0378 µM)	2 µg/mL (≈ 4.85 µM)	0.0313 µg/mL (≈ 0.0759 µM)	0.0156 µg/mL (≈ 0.0378 µM)		
C[C@@H](n1nnc2c(F)cccc2c1=O)[C@](O)(Cn1cncn1)c1ccc(F)cc1F	> 64 µg/mL	0.5 µg/mL (≈ 1.2 µM)	0.0313 µg/mL (≈ 0.0752 µM)						
C[C@@H](n1nnc2cc(I)ccc2c1=O)[C@](O)(Cn1cncn1)c1ccc(F)cc1F	1 µg/mL (≈ 1.91 µM)	0.0156 µg/mL (≈ 0.0298 µM)	0.125 µg/mL (≈ 0.238 µM)	0.0156 µg/mL (≈ 0.0298 µM)	1 µg/mL (≈ 1.91 µM)	0.0625 µg/mL (≈ 0.119 µM)	0.0313 µg/mL (≈ 0.0597 µM)	> 64 µg/mL	> 64 µg/mL
C[C@@H](n1nnc2cc([N+](=O)[O-])ccc2c1=O)[C@](O)(Cn1cncn1)c1ccc(F)cc1F	4 µg/mL (≈ 9.02 µM)	0.0156 µg/mL (≈ 0.0352 µM)	0.25 µg/mL (≈ 0.564 µM)	0.0156 µg/mL (≈ 0.0352 µM)	4 µg/mL (≈ 9.02 µM)	0.0313 µg/mL (≈ 0.0706 µM)	0.0313 µg/mL (≈ 0.0706 µM)		
C[C@@H](n1nnc2cc(F)c(F)cc2c1=O)[C@](O)(Cn1cncn1)c1ccc(F)cc1F	2 µg/mL (≈ 4.6 µM)	0.0313 µg/mL (≈ 0.0721 µM)	0.5 µg/mL (≈ 1.15 µM)	0.0156 µg/mL (≈ 0.0359 µM)	1 µg/mL (≈ 2.3 µM)	0.0313 µg/mL (≈ 0.0721 µM)	0.0625 µg/mL (≈ 0.144 µM)		
C[C@@H](n1nnc2ccc(Cl)cc2c1=O)[C@](O)(Cn1cncn1)c1ccc(F)cc1F	> 64 µg/mL	0.0313 µg/mL (≈ 0.0723 µM)	0.5 µg/mL (≈ 1.16 µM)						
C[C@@H](n1nnc2ccc(I)cc2c1=O)[C@](O)(Cn1cncn1)c1ccc(F)cc1F	32 µg/mL (≈ 61 µM)	0.125 µg/mL (≈ 0.238 µM)	0.5 µg/mL (≈ 0.954 µM)						
C[C@@H](n1nnc2cc(Cl)ccc2c1=O)[C@](O)(Cn1cncn1)c1ccc(F)cc1F	0.25 µg/mL (≈ 0.578 µM)	0.0156 µg/mL (≈ 0.036 µM)	0.0313 µg/mL (≈ 0.0723 µM)	0.0156 µg/mL (≈ 0.036 µM)	0.25 µg/mL (≈ 0.578 µM)	0.0156 µg/mL (≈ 0.036 µM)	0.0156 µg/mL (≈ 0.036 µM)	8 µg/mL (≈ 18.5 µM)	2 µg/mL (≈ 4.62 µM)
C[C@@H](n1nnc2c(ccc3ccccc32)c1=O)[C@](O)(Cn1cncn1)c1ccc(F)cc1F	> 64 µg/mL	0.125 µg/mL (≈ 0.279 µM)	0.5 µg/mL (≈ 1.11 µM)						
C[C@@H](n1nnc2cccc(Br)c2c1=O)[C@](O)(Cn1cncn1)c1ccc(F)cc1F	32 µg/mL (≈ 67 µM)	0.25 µg/mL (≈ 0.524 µM)	0.0625 µg/mL (≈ 0.131 µM)						
C[C@@H](n1nnc2cccc(F)c2c1=O)[C@](O)(Cn1cncn1)c1ccc(F)cc1F	> 64 µg/mL	0.5 µg/mL (≈ 1.2 µM)	0.0625 µg/mL (≈ 0.15 µM)						
C[C@@H](n1nnc2cc(Br)ccc2c1=O)[C@](O)(Cn1cncn1)c1ccc(F)cc1F	0.5 µg/mL (≈ 1.05 µM)	0.0156 µg/mL (≈ 0.0327 µM)	0.0625 µg/mL (≈ 0.131 µM)	0.0156 µg/mL (≈ 0.0327 µM)	0.5 µg/mL (≈ 1.05 µM)	0.0313 µg/mL (≈ 0.0656 µM)	0.0156 µg/mL (≈ 0.0327 µM)	16 µg/mL (≈ 33.5 µM)	32 µg/mL (≈ 67 µM)
C[C@@H](n1nnc2ccccc2c1=O)[C@](O)(Cn1cncn1)c1ccc(F)cc1F	4 µg/mL (≈ 10 µM)	0.0313 µg/mL (≈ 0.0786 µM)	0.25 µg/mL (≈ 0.628 µM)	0.0156 µg/mL (≈ 0.0392 µM)	2 µg/mL (≈ 5.02 µM)	0.0313 µg/mL (≈ 0.0786 µM)	0.0625 µg/mL (≈ 0.157 µM)		
COc1ccc2c(=O)n([C@H](C)[C@](O)(Cn3cncn3)c3ccc(F)cc3F)nnc2c1	2 µg/mL (≈ 4.67 µM)	0.0156 µg/mL (≈ 0.0364 µM)	0.125 µg/mL (≈ 0.292 µM)	0.0156 µg/mL (≈ 0.0364 µM)	2 µg/mL (≈ 4.67 µM)	0.0313 µg/mL (≈ 0.0731 µM)	0.0156 µg/mL (≈ 0.0364 µM)		
C[C@@H](n1nnc2ccc(F)cc2c1=O)[C@](O)(Cn1cncn1)c1ccc(F)cc1F	16 µg/mL (≈ 38.4 µM)	0.0625 µg/mL (≈ 0.15 µM)	0.25 µg/mL (≈ 0.6 µM)						
C[C@@H](n1nnc2c(Cl)cccc2c1=O)[C@](O)(Cn1cncn1)c1ccc(F)cc1F	> 64 µg/mL	0.25 µg/mL (≈ 0.578 µM)	0.25 µg/mL (≈ 0.578 µM)						
C[C@@H](n1nnc2c(Br)cccc2c1=O)[C@](O)(Cn1cncn1)c1ccc(F)cc1F	> 64 µg/mL	0.5 µg/mL (≈ 1.05 µM)	0.25 µg/mL (≈ 0.524 µM)						
C[C@@H](n1nnc2cccc(Cl)c2c1=O)[C@](O)(Cn1cncn1)c1ccc(F)cc1F	32 µg/mL (≈ 73.9 µM)	0.25 µg/mL (≈ 0.578 µM)	0.0625 µg/mL (≈ 0.144 µM)						
C[C@@H](n1nnc2ccc([N+](=O)[O-])cc2c1=O)[C@](O)(Cn1cncn1)c1ccc(F)cc1F	> 64 µg/mL	0.5 µg/mL (≈ 1.13 µM)	2 µg/mL (≈ 4.51 µM)						
C[C@@H](n1nnc2cc(Cl)c(F)cc2c1=O)[C@](O)(Cn1cncn1)c1ccc(F)cc1F	8 µg/mL (≈ 17.7 µM)	0.125 µg/mL (≈ 0.277 µM)	0.25 µg/mL (≈ 0.555 µM)						
COc1ccc2nnn([C@H](C)[C@](O)(Cn3cncn3)c3ccc(F)cc3F)c(=O)c2c1	32 µg/mL (≈ 74.7 µM)	0.0625 µg/mL (≈ 0.146 µM)	1 µg/mL (≈ 2.33 µM)						
Cc1ccc2nnn([C@H](C)[C@](O)(Cn3cncn3)c3ccc(F)cc3F)c(=O)c2c1	16 µg/mL (≈ 38.8 µM)	0.0625 µg/mL (≈ 0.152 µM)	0.25 µg/mL (≈ 0.606 µM)						
C[C@@H](n1nnc2ccc(C(F)(F)F)cc2c1=O)[C@](O)(Cn1cncn1)c1ccc(F)cc1F	> 64 µg/mL	0.25 µg/mL (≈ 0.536 µM)	2 µg/mL (≈ 4.29 µM)						
C[C@@H](n1cnc2cc(Cl)ccc2c1=O)[C@](O)(Cn1cncn1)c1ccc(F)cc1F [ALBACONAZOLE]	0.25 µg/mL (≈ 0.579 µM)	0.0313 µg/mL (≈ 0.0725 µM)	0.0313 µg/mL (≈ 0.0725 µM)	0.0156 µg/mL (≈ 0.0361 µM)	1 µg/mL (≈ 2.32 µM)	0.0156 µg/mL (≈ 0.0361 µM)	0.0625 µg/mL (≈ 0.145 µM)	8 µg/mL (≈ 18.5 µM)	4 µg/mL (≈ 9.26 µM)
OC(Cn1cncn1)(Cn1cncn1)c1ccc(F)cc1F [FLUCONAZOLE]	> 64 µg/mL	0.5 µg/mL (≈ 1.63 µM)	0.5 µg/mL (≈ 1.63 µM)	0.5 µg/mL (≈ 1.63 µM)	32 µg/mL (≈ 104 µM)	1 µg/mL (≈ 3.27 µM)	2 µg/mL (≈ 6.53 µM)	> 64 µg/mL	> 64 µg/mL
C[C@@H](c1ncncc1F)[C@](O)(Cn1cncn1)c1ccc(F)cc1F [VORICONAZOLE]	0.25 µg/mL (≈ 0.716 µM)	0.0313 µg/mL (≈ 0.0896 µM)	0.0625 µg/mL (≈ 0.179 µM)	0.0156 µg/mL (≈ 0.0447 µM)	0.25 µg/mL (≈ 0.716 µM)	0.0156 µg/mL (≈ 0.0447 µM)	0.0156 µg/mL (≈ 0.0447 µM)	> 64 µg/mL	> 64 µg/mL
